Data on five compounds can be found in patent publication US8536354B2, “Steroidal ligands and their use in gene switch modulation” (Intrexon Corporation, priority 2008, dated 2013).

≈ marks a conversion by molar mass, not a printed value. Where “and” joins values, the source holds several entries; their conditions need not be identical. Equal entries are not always repeated. Where two headings read alike, the source gives them in different places.

Data set [1] deals with D. melanogaster BII cell line (expresses the ecdysteroid receptor complex EcR-USP). In words: Drosophila melanogaster BII cell line bioassay (turbidometric; agonist and antagonist versions). Conditions: Drosophila melanogaster, read-out: EC50 (M), BII bioassay results.
Data set [2] deals with T1, wild-type Aedes aegypti EcR (AaEcR-DEF) (Aedes aegypti, UniProt P49880).
T1 sequence (P49880 405-776 limits assumed): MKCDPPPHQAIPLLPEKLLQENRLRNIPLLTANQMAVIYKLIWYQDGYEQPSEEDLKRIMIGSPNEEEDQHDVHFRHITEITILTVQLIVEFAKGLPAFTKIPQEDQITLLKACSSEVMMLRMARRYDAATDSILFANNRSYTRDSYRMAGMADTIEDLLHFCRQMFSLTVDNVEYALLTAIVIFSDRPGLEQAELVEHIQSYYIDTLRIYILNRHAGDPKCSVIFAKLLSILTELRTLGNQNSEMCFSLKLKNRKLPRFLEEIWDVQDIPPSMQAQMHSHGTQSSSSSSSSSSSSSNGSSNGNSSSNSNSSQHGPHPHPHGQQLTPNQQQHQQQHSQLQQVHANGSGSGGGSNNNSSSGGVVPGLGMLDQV
In words: Two-hybrid gene switch assay, AaEcR-DEF in NIH3T3 cells. Conditions: for EC50: NIH3T3, Example One; for potency as activator of AaEcR: Example Two.

Data set [3] has as its target T2, wild-type Drosophila melanogaster EcR (DmEcR-DEF) (Drosophila melanogaster, UniProt P34021).
T2 sequence (P34021 342-878 limits assumed): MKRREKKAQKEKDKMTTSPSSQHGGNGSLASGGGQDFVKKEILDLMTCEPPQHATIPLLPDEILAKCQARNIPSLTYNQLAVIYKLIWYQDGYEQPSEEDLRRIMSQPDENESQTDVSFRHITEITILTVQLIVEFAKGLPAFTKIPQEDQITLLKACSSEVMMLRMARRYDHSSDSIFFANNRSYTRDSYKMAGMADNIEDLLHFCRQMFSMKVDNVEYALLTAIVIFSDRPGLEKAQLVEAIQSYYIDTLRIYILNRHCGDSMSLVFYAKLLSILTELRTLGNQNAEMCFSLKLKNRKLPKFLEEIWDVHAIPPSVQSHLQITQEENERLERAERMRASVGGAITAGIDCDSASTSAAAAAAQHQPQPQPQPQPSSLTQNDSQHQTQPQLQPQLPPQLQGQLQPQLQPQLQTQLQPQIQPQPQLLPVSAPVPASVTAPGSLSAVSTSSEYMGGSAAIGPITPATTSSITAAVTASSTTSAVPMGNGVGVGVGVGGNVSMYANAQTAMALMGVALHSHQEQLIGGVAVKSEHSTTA
In words: Two-hybrid gene switch assay, DmEcR-DEF in NIH3T3 cells. Conditions: EC50, DmEcR gene switch, NIH3T3, Example One.

The target in data set [4] is T3, wild-type Choristoneura fumiferana EcR (CfEcR-DEF) (Choristoneura fumiferana, UniProt O77255).
T3 sequence (O77255 219-541): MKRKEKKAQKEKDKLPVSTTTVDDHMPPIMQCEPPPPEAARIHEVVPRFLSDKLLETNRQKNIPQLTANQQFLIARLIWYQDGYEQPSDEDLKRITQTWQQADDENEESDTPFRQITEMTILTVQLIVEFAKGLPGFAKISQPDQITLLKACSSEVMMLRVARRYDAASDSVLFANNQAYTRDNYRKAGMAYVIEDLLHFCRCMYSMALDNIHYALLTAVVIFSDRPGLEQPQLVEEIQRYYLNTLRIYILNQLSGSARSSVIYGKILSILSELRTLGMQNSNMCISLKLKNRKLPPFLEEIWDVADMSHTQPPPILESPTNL
T3 sequence (P28702 299-449 partner): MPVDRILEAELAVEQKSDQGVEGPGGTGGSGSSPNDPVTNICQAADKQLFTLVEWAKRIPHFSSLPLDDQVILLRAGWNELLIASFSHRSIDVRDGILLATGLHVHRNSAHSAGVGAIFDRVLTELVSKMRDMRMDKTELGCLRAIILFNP
In words: Two-hybrid gene switch assay, wild-type CfEcR-DEF (GAL4-EcR / VP16-RXR-USP chimera, luciferase) in NIH3T3 cells.

Another data set deals with VgEcR/RXR (Drosophila melanogaster, UniProt P34021, E282G/G283S/G286V).
Sequence of VgEcR/RXR (P34021 whole entry E282G/G283S/G286V): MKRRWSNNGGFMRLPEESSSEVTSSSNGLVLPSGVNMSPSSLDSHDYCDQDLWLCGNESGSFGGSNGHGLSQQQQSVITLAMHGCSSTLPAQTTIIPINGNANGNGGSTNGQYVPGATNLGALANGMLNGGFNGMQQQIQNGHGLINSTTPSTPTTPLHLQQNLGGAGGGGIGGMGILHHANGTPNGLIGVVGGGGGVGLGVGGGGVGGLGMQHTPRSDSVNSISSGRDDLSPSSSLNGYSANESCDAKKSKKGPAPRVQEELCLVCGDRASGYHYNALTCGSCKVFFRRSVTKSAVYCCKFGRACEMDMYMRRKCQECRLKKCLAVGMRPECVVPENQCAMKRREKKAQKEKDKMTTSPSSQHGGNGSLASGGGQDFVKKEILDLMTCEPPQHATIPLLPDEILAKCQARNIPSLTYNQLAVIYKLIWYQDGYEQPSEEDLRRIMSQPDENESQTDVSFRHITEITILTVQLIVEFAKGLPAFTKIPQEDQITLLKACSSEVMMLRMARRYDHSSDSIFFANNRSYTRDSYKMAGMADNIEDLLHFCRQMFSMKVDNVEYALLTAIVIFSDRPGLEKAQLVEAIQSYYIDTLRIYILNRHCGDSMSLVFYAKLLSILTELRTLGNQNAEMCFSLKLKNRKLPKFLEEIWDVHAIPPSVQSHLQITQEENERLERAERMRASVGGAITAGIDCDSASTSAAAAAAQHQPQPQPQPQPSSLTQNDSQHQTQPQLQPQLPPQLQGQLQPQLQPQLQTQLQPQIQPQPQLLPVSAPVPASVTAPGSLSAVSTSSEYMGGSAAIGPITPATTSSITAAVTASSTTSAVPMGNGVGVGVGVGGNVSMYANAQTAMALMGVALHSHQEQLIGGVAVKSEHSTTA
Sequence of VgEcR/RXR (P19793 whole entry, further chain): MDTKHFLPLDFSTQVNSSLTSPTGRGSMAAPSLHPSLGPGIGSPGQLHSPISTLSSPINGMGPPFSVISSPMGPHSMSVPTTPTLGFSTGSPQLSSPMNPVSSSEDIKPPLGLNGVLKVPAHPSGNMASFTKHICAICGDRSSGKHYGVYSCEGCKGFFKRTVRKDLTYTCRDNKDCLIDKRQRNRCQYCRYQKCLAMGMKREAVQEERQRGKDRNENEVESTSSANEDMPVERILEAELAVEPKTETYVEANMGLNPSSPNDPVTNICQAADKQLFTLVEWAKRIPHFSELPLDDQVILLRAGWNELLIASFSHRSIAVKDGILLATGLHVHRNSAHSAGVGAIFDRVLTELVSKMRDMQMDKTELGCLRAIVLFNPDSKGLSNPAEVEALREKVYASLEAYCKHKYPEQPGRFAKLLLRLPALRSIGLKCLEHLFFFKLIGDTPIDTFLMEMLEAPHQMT
The test system of data set [5] is EcRs (lepidopteran and non-lepidopteran). In words: Two-hybrid gene switch assays, statements across the set of ten EcRs in NIH3T3 cells. Conditions: for activity across the tested set of EcRs: FIGS. 13 and 14; for EC50: read-out: potency (EC50).
Data set [6] is described as follows: Water solubility measurement (saturated solutions, 25° C., UV absorbance). Particulars: for solubility: 25 °C, thermodynamic from solid.
Experimental: (§1) Each shake flask was agitated for 60 minutes at room temperature, then allowed to stand for 1 hour at room temperature. […] Absorbance was compared to that of a reference standard at the same absorbance maximum for a 1-2% solution of the same steroid in CH3OH, allowing for up to 10 nM maxima shift due to solvent effect.
In data set [7] the target is Bemisia argentifolii EcR (BaEcR-DEF) (Bemisia argentifolii (Bemisia tabaci biotype B / MEAM1), UniProt A0A6M3RDR8). In words: Two-hybrid gene switch assay, BaEcR-DEF in NIH3T3 cells.
Sequence of Bemisia argentifolii EcR (BaEcR-DEF) (P28702 298-449): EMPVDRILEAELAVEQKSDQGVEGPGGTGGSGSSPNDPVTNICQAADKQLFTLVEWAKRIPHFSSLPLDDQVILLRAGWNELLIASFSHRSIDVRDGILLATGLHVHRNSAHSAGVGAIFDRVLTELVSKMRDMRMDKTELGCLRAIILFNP
Sequence of Bemisia argentifolii EcR (BaEcR-DEF) (A0A6M3RDR8 entry or part of it): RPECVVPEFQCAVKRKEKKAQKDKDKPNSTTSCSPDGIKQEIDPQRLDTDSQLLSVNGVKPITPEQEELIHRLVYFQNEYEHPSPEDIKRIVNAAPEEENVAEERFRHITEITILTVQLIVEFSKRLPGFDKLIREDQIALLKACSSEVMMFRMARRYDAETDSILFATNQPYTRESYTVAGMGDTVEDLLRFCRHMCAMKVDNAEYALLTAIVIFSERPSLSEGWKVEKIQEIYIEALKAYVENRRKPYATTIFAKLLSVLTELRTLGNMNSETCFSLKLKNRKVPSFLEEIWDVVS
The target in a further data set is T4, Bombyx mori EcR (BmEcR) (Bombyx mori, UniProt P49881).
T4 sequence (P49881 352-589 limits assumed): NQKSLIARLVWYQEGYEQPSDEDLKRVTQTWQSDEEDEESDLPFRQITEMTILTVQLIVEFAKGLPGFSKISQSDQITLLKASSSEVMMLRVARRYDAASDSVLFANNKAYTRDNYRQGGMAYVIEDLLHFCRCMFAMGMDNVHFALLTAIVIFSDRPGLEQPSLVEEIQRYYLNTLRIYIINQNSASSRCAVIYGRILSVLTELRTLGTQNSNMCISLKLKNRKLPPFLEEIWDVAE
In words: Two-hybrid gene switch assay, BmEcR in NIH3T3 cells.

A short description of data set [8]: Log D measurement (shake flask, pH 7.4 buffer / octanol). Type of data set: physicochemical. Conditions: octanol/pH 7.4 buffer (shake flask), pH 7.4 buffer / water-saturated octanol, read-out: Experimental logD.
Experimental: as §1
Data set [9] has as its system Nephotettix cincticeps EcR (NcEcR-DEF). In words: Two-hybrid gene switch assay, NcEcR-DEF in NIH3T3 cells. Conditions: Example Two.
Data set [10] is described as follows: Plasma protein binding assay (dialysis). Type of data set: in vitro ADME. Particulars: both sexes; human plasma vs PBS pH 7.4, ca. 24 hours at 37° C.
The nature of data set [11]: Caco II permeability assay. Particulars: human, Caco-2, pH 7.4. On the technique in general: Passage across Caco-2 layers is used to estimate intestinal permeability.
For data set [12] the following is noted: in human; cited from earlier work.
A further data set can be described thus: physchem. Conditions: 25 °C, water, thermodynamic from solid.
The mark [13] stands for this setting: wt-CfEcR gene switch, NIH3T3, Example One.
[14] abbreviates: EC50, VgEcR/RXR switch in 3T3 cells.

Experimental for physchem: as §1

As usually defined, the EC50 is the concentration giving half of the maximal effect. `CO[C@H](CCC(C)C)[C@](C)(O)[C@H]1CC[C@@]2(O)C3=CC(=O)[C@@H]4C[C@@H](O)[C@@H](O)C[C@]4(C)[C@H]3CC[C@]12C` [compound 18, ponasterone A, 22-methyl ether]: the 50% effective concentration (EC50) in data set [1] is 2.2e-08 M; in data set [2] (EC50, AaEcR gene switch), 0.38 nM; in data set [3] it was 66 nM and ~66 nM; at VgEcR/RXR (setting [14]), 553 nM; at VgEcR/RXR (EC50, VgEcR/RXR system), 533 nM. Besides, the “RMFI (relative maximum fold induction, relative to diacylhydrazine 30)” value in data set [4] (setting [13]) is reported as approximately 0.6. The compound further registered an RMFI at VgEcR/RXR (VgEcR/RXR system) of 1.5.
With `CC(C)CC[C@@H](O)[C@](C)(O)[C@H]1CC[C@@]2(O)C3=CC(=O)[C@]4(O)C[C@@H](O)[C@@H](O)C[C@]4(C)[C@H]3[C@H](O)C[C@]12C` [muristerone A], in [5], the “activity across the tested set of EcRs” value was “active”. The concentration for a half-maximal effect (EC50) in data set [2] (AaEcR gene switch) is 9 nM; in data set [4] (setting [13]), 7400 nM; on VgEcR/RXR (VgEcR/RXR switch in 3T3 cells), 851 nM; on VgEcR/RXR (VgEcR/RXR system), 851 nM. Besides, the Experimental aqueous solubility in data set [6] (25° C.) was more than 2900 µg/mL. The compound also showed an RMFI on VgEcR/RXR (VgEcR/RXR system) of 1.3.
Broadly, the logD is the decadic logarithm of the distribution of all forms, ionised or not, between an organic phase and buffer at a given pH. The solubility is the concentration that dissolves in the medium under given conditions. Low readings indicate a poorly soluble substance, high ones a readily soluble substance. For the compound `CCc1c(OC)cccc1C(=O)NN(C(=O)c1cc(C)cc(C)c1)C(C)(C)C` [diacylhydrazine 30], the EC50 was 6000 nM in data set [7] and 3 to 20 nM in [5] (lepidopteran receptors). The “diacylhydrazine reference FI” value on Bombyx mori EcR (BmEcR) (BmEcR, Example Two, background FI=3) was 1776. Moreover, the pH-dependent lipophilicity (logD) in data set [8] was 3.4. Further, the “potency as activator of AaEcR” value in [2] is “single digit nM”. Also, in data set [6], the solubility was 6.2 µg/mL (≈ 16.2 µM). Also, the fold induction at 1 µM in [4] (NIH3T3, 48 h, read-out: reference FI (1 microM)) was 806.
A word on the fraction unbound: it is the share of the substance not bound to proteins or other matrix. Lower therefore signals extensive binding. One may read the Papp A→B as the apparent permeability from the apical to the basolateral side of a cell layer. Higher therefore signals fast passage. In general, Papp B→A refers to the apparent permeability from the basolateral to the apical side of a cell layer. Usually efflux ratio stands for a quotient of directional permeabilities that is used to spot active efflux. As for `CC(C)CC[C@@H](O)[C@](C)(O)[C@H]1CC[C@@]2(O)C3=CC(=O)[C@@H]4C[C@@H](O)[C@@H](O)C[C@]4(C)[C@H]3CC[C@]12C` [PoA, ponasterone A], the EC50 in data set [1] was 2.6e-10 M; in data set [5] (Nc, Aa, and Ama EcRs), 0.3 to 2 nM; at Bombyx mori EcR (BmEcR), 110 nM; in data set [9], 0.3 nM; in [2] (EC50, AaEcR gene switch), 1.1 nM; in data set [3], approximately 66 nM. Further, the EC50 in data set [4] worked out at 190 nM; on VgEcR/RXR (setting [14]), 641 nM; on VgEcR/RXR (EC50, VgEcR/RXR system), 641 nM. For the same compound, the “activity across the tested set of EcRs” value in data set [5] was “active”. Besides, in data set [5] (all EcRs tested), the “potency” value is recorded as “submicromolar potency”. The RMFI on Bombyx mori EcR (BmEcR) (BmEcR, Example Two) amounted to 0.98; in data set [9], 1; at VgEcR/RXR (VgEcR/RXR system), 1.5. For the same compound, the logD in data set [8] came to 1.95. Further, the “potency as activator of AaEcR” value in data set [2] is recorded as “single digit nM”. In addition, in data set [2] (NIH3T3, read-out: FI (fold induction)), the fold induction at 1 µM turned out to be 166. In addition, in data set [2] ([AaEcR]), the “RLUs (absolute expression of the reporter gene)” value is reported as approximately 1046. Further, the fraction unbound in data set [10] was 0.426. Also, the solubility in [6] amounted to 180 µg/mL (≈ 387 µM). The “RMFI (relative maximum fold induction, relative to diacylhydrazine 30)” value in [4] (setting [13]) was ~0.18 and ~0.2. Besides, the Papp A→B at 120 min in [11] was 2.26 ×10⁻⁶ cm/s. Besides, the apparent permeability from basolateral to apical (Papp B→A) at 120 min in data set [11] amounted to 13.9 ×10⁻⁶ cm/s. For the same compound, the efflux ratio at 120 min in [11] was 6.2.
With `CC(C)(O)CCC(O)C(C)(O)C1CCC2(O)C3=CC(=O)C4CC(O)C(O)CC4(C)C3CCC12C` (centres unmarked) [20E, 20-hydroxyecdysone], the estimated half-life in data set [12] is 9 h. For the same compound, the concentration giving a half-maximal response (EC50) in data set [1] came to 7.6e-09 M. In data set [8], the log distribution coefficient (logD) was determined as 0.01. This compound registered a solubility in the data set “physchem” of 6700 µg/mL (≈ 13900 µM). The fraction unbound in data set [10] was 0.908. The compound also gave an EC50 in data set [4] of more than 33000 nM. Besides, the “activity in wt-CfEcR assay” value in data set [4] (Example One) was “essentially inactive”. The “response toward CfEcR” value in data set [4] (Example Two) is recorded as “virtually no response”. Besides, in data set [11], the Papp A→B at 120 min was 0.11 ×10⁻⁶ cm/s, the apparent permeability from basolateral to apical (Papp B→A) at 120 min was 0.39 ×10⁻⁶ cm/s and the efflux ratio at 120 min amounted to 3.5.
